Measurements reported in patent US12594276B2, “Inhibitors of human immunodeficiency virus replication” (ViiV Healthcare UK (No.5) Limited, priority 2024, dated 2026).
pEC50: −log10 of the molar value. Where two headings read alike, the source gives them in different places.

Columns and labels:
[1] = system: recombinant NL4-3 virus (nef section replaced with Renilla luciferase gene) in MT-2 cells; assay: HIV cell culture assay (antiviral activity, luciferase readout); assay type: cell-based; conditions: Renilla, NL43, MT-2 cells infected for 4-5 days with recombinant NL4-3 Renilla luciferase virus
How it was run: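 EC50 was derived by median-effect fitting of Renilla luciferase signal from MT-2 cells. These cells were infected for 4–5 days with NL4-3 reporter virus (nef partly replaced by luciferase; made in 293T cells) in the presence of serially diluted compound. Activity was quantified with a live-cell luciferase substrate.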

[2] = Compound cytotoxicity, XTT-based colorimetric assay; assay type: cell-based; conditions: human
How it was run: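 CC50 derived from XTT colorimetric signal measured on day 4 in MT2 cells that were not infected. All other steps followed the antiviral assay protocol.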

[3] = uninfected MT2 cells, day 4, XTT, read-out: CC50

Row | SMILES | pEC50 [1] | CC50 at 4 days [2, 3] [nM] | CC50 at 4 days [2] [nM]
1 | CS(=O)(=O)Nc1nn(CCN2C[C@H](F)C[C@H](F)C2)c2c(-n3c([C@H](Cc4cc(F)cc(F)c4)NC(=O)Cn4nc(C5CC5)c5c4C[C@@H]4C[C@H]54)nc4nc(C5CCC(F)(F)CC5)cc(C(F)F)c4c3=O)ccc(Cl)c12 (atropisomer, axis not shown; (P)) [Example 287, N-[(1S)-1-[(3P)-3-(4-chloro-1-{2-[(3R,5S)-3,5-difluoropiperidin-1-yl]ethyl}-3-methanesulfonamido-1H-indazol-7-yl)-7-(4,4-difluorocyclohexyl)-5-(difluoromethyl)-4-oxo-3H,4H-pyrido[2,3-d]pyrimidin-2-yl]-2-(3,5-difluorophenyl)ethyl]-2-[(2S,4S)-9-cyclopropyl-7,8-diazatricyclo[4.3.0.0^2,^4]nona-1(6),8-dien-7-yl]acetamide] | 11.00 | > 50 | –
2 | COCCCn1nc(NS(C)(=O)=O)c2c(Cl)ccc(-n3c([C@H](Cc4cc(F)cc(F)c4)NC(=O)Cn4nc(C(F)F)c5c4C(F)(F)[C@@H]4C[C@H]54)nc4nc(C5CCC(F)(F)CC5)cc(NCCOC)c4c3=O)c21 (atropisomer, axis not shown; (P)) [Example 135, N-[(1S)-1-[(3P)-3-[4-chloro-3-methanesulfonamido-1-(3-methoxypropyl)-1H-indazol-7-yl]-7-(4,4-difluorocyclohexyl)-5-[(2-methoxyethyl)amino]-4-oxo-3H,4H-pyrido[2,3-d]pyrimidin-2-yl]-2-(3,5-difluorophenyl)ethyl]-2-[(2S,4R)-9-(difluoromethyl)-5,5-difluoro-7,8-diazatricyclo[4.3.0.0^2,4]nona-1(6),8-dien-7-yl]acetamide] | 10.89 | > 50 | –
3 | C[C@@H]1CN(Cc2cc(C3CCC(F)(F)CC3)nc3nc([C@H](Cc4cc(F)cc(F)c4)NC(=O)Cn4nc(C(F)F)c5c4C(F)(F)[C@@H]4C[C@H]54)n(-c4ccc(Cl)c5c(NS(C)(=O)=O)nn(CCN6C[C@H](F)C[C@H](F)C6)c45)c(=O)c23)C[C@H](C)O1 (atropisomer, axis not shown; (P)) [Example 526, N-[(1S)-1-[(3P)-3-(4-chloro-1-{2-[(3R,5S)-3,5-difluoropiperidin-1-yl]ethyl}-3-methanesulfonamido-1H-indazol-7-yl)-7-(4,4-difluorocyclohexyl)-5-{[(2R,6S)-2,6-dimethylmorpholin-4-yl]methyl}-4-oxo-3H,4H-pyrido[2,3-d]pyrimidin-2-yl]-2-(3,5-difluorophenyl)ethyl]-2-[(2S,4R)-9-(difluoromethyl)-5,5-difluoro-7,8-diazatricyclo[4.3.0.0^2,^4]nona-1(6),8-dien-7-yl]acetamide] | 10.85 | > 20 | –
4 | CS(=O)(=O)Nc1nn(CCN2[C@@H]3CC[C@H]2CC(F)(F)C3)c2c(-n3c([C@H](Cc4cc(F)cc(F)c4)NC(=O)Cn4nc(C(F)F)c5c4C(F)(F)[C@@H]4C[C@H]54)nc4nc(C5CCC(F)(F)CC5)ccc4c3=O)ccc(Cl)c12 (atropisomer, axis not shown; (P)) [Example 43, N-[(1S)-1-[(3P)-3-(4-chloro-1-{2-[(1R,5S)-3,3-difluoro-8-azabicyclo[3.2.1]octan-8-yl]ethyl}-3-methanesulfonamido-1H-indazol-7-yl)-7-(4,4-difluorocyclohexyl)-4-oxo-3H,4H-pyrido[2,3-d]pyrimidin-2-yl]-2-(3,5-difluorophenyl)ethyl]-2-[(2S,4R)-9-(difluoromethyl)-5,5-difluoro-7,8-diazatricyclo[4.3.0.0^2,^4]nona-1(6),8-dien-7-yl]acetamide] | 10.68 | – | > 50
5 | Cc1cc(C2(F)CCC(F)(F)CC2)nc2nc([C@H](Cc3cc(F)cc(F)c3)NC(=O)Cn3nc(C4CC4)c4c3C[C@@H]3C[C@H]43)n(-c3ccc(Cl)c4c(NS(C)(=O)=O)nn(CCN5CCO[C@@H](C(C)C)C5)c34)c(=O)c12 (atropisomer, axis not shown; (P)) [Example 581, N-[(1S)-1-[(3P)-3-(4-chloro-3-methanesulfonamido-1-{2-[(2S)-2-(propan-2-yl)morpholin-4-yl]ethyl}-1H-indazol-7-yl)-5-methyl-4-oxo-7-(1,4,4-trifluorocyclohexyl)-3H,4H-pyrido[2,3-d]pyrimidin-2-yl]-2-(3,5-difluorophenyl)ethyl]-2-[(2S,4S)-9-cyclopropyl-7,8-diazatricyclo[4.3.0.0^2,^4]nona-1(6),8-dien-7-yl]acetamide] | 10.82 | > 20 | –
6 | COCCn1nc(NS(C)(=O)=O)c2c(Cl)ccc(-n3c([C@H](Cc4cc(F)cc(F)c4)NC(=O)Cn4nc(C(F)F)c5c4C(F)(F)[C@@H]4C[C@H]54)nc4nc(C5CCC(F)(F)CC5)cc(C)c4c3=O)c21 (atropisomer, axis not shown; (P)) [Example 84, N-[(1S)-1-[(3P)-3-[4-chloro-3-methanesulfonamido-1-(2-methoxyethyl)-1H-indazol-7-yl]-7-(4,4-difluorocyclohexyl)-5-methyl-4-oxo-3H,4H-pyrido[2,3-d]pyrimidin-2-yl]-2-(3,5-difluorophenyl)ethyl]-2-[(2S,4R)-9-(difluoromethyl)-5,5-difluoro-7,8-diazatricyclo[4.3.0.0^2,^4]nona-1(6),8-dien-7-yl]acetamide] | 10.80 | > 50 | –
7 | Cc1cc(C2CCC(F)(F)CC2)nc2nc([C@H](Cc3cc(F)cc(F)c3)NC(=O)Cn3nc(C(F)F)c4c3C(F)(F)[C@@H]3C[C@H]43)n(-c3ccc(Cl)c4c(NS(C)(=O)=O)nn(CCN5CC(C)(C)OC(C)(C)C5)c34)c(=O)c12 (atropisomer, axis not shown; (P)) [Example 17, N-[(1S)-1-[(3P)-3-{4-chloro-3-methanesulfonamido-1-[2-(2,2,6,6-tetramethylmorpholin-4-yl)ethyl]-1H-indazol-7-yl}-7-(4,4-difluorocyclohexyl)-5-methyl-4-oxo-3H,4H-pyrido[2,3-d]pyrimidin-2-yl]-2-(3,5-difluorophenyl)ethyl]-2-[(2S,4R)-9-(difluoromethyl)-5,5-difluoro-7,8-diazatricyclo[4.3.0.0^2,^4]nona-1(6),8-dien-7-yl]acetamide] | 10.92 | > 50 | –
8 | CS(=O)(=O)Nc1nn(CCN2CCC(F)(F)CC2)c2c(-n3c([C@H](Cc4cc(F)cc(F)c4)NC(=O)Cn4nc(C(F)F)c5c4C(F)(F)[C@@H]4C[C@H]54)nc4nc(C5CCC(F)(F)CC5)ccc4c3=O)ccc(Cl)c12 (atropisomer, axis not shown; (P)) [Example 130, N-[(1S)-1-[(3P)-3-{4-chloro-1-[2-(4,4-difluoropiperidin-1-yl)ethyl]-3-methanesulfonamido-1H-indazol-7-yl}-7-(4,4-difluorocyclohexyl)-4-oxo-3H,4H-pyrido[2,3-d]pyrimidin-2-yl]-2-(3,5-difluorophenyl)ethyl]-2-[(2S,4R)-9-(difluoromethyl)-5,5-difluoro-7,8-diazatricyclo[4.3.0.0^2,^4]nona-1(6),8-dien-7-yl]acetamide] | 10.89 | > 50 | –
